Measurements from patent publication US20220264878A1, “HERBICIDAL COMPOSITION CONTAINING R-TYPE PYRIDYLOXY CARBOXYLIC ACID DERIVATIVE AND USE THEREOF” (Qingdao Kingagroot Chemical Compound Co., Ltd., priority 2019, published 2022).
Like-named read-outs stand apart in the source and are kept apart here.

Columns and labels:
Assay type in all cases: in vivo
Eleusine indica = test: Post-emergence foliage spray, pot culture, fresh weight inhibition (Tables 151-206; 20 days)
Procedure, shortened: (§1)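 Field-collected weeds grown in pots in a greenhouse (20-30° C., natural light, 57-72% RH), 15 per pot, 3 pots × 4 replicates. Single foliar spray at 4-5 leaves (grasses) or 5-6 leaves (broadleaf) with acetone/0.1% Tween-80 dilutions at 450 kg/ha, 0.3 MPa. Above-ground fresh weight inhibition versus solvent blank at 20 days.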

Digitaria sanguinalis = test: as above; settings: Digitaria sanguinalis, 480 h, read-out: Control effect (%) of A applied alone in corresponding dose
Procedure, shortened: as §1

Sinapis arvensis = test: as above
Procedure, shortened: as §1

Alopecurus japonicus = test: as above
Procedure, shortened: as §1

Amaranthus retroflexus = test: as above
Procedure, shortened: (§2)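 Pre-germinated seeds (25° C soak 6 h, 28° C dark) grown in pots, thinned to 15 per pot; foliage-sprayed at 4~5-leaf (grasses) or 5~6-leaf (broadleaf) stage, 450 kg/ha spray volume, 0.3 MPa. Agents in acetone diluted with 0.1% Tween-80 water; solvent blank control. Above-ground fresh weight weighed, dead weeds scored zero.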

Capsella bursa-pastoris = test: as above; settings: Capsella bursa-pastoris, 480 h, read-out: Control effect (%) of A applied alone in corresponding dose
Procedure, shortened: as §2

Malachium aquaticum = test: Post-emergence foliage spray, pot culture, fresh weight inhibition (Tables 1-48, 51-98, 101-148; 24 days)
Procedure, shortened: (§3)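 Pot-grown weeds were thinned to 15 per pot (45 per treatment) and sprayed on foliage at the 5–6-leaf stage for grasses or the 6–7-leaf stage for broadleaves. Agents were dissolved in acetone with 0.1% Tween-80 and applied at 450 kg/ha spray volume and 0.3 MPa. Plants were then kept in a greenhouse. Above-ground fresh weight of survivors, with dead plants counted as zero, gave inhibition versus a solvent/emulsifier blank.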

Chenopodium album = test: as above
Procedure, shortened: as §3

Echinochloa caudate = test: as above
Procedure, shortened: as §3

Galium aparine L. = test: as above; settings: fresh weight inhibition after 24 days
Procedure, shortened: as §3

[1] = tested on: Echinochloa crusgalli var. zelayensis; test: as above
Procedure, shortened: as §3

[2] = A alone 75 g a.i./ha, 20 days after treatment
[3] = A alone 150 g a.i./ha, 20 days after treatment

C[C@@H](Oc1nc(F)c(Cl)c(N)c1Cl)C(=O)O [Compound A1]
Control effect (%) of A applied alone in corresponding dose (Eleusine indica; A 75 g a.i./ha, 20 days): 46.9% | Control effect (%) of A applied alone in corresponding dose (Eleusine indica; A 150 g a.i./ha, 20 days): 81.2% | pest or weed control at 75 g/ha (Digitaria sanguinalis; A 75 g a.i./ha, 20 days): 25.9% | pest or weed control at 150 g/ha (Digitaria sanguinalis; A 150 g a.i./ha, 20 days): 69.1% | Control effect (%) of A applied alone in corresponding dose (Sinapis arvensis; A 75 g a.i./ha, 20 days): 50.4% | Control effect (%) of A applied alone in corresponding dose (Sinapis arvensis; A 150 g a.i./ha, 20 days): 79.9% | Control effect (%) of A applied alone in corresponding dose (Alopecurus japonicus; A 75 g a.i./ha, 20 days): 31.3% | Control effect (%) of A applied alone in corresponding dose (Alopecurus japonicus; A 150 g a.i./ha, 20 days): 57.6% | Control effect (%) of A applied alone in corresponding dose (Amaranthus retroflexus; A 75 g a.i./ha, 20 days): 35.4% | Control effect (%) of A applied alone in corresponding dose (Amaranthus retroflexus; A 150 g a.i./ha, 20 days): 71.7% | pest or weed control at 75 g/ha (Capsella bursa-pastoris; A 75 g a.i./ha, 20 days): 56.5% | pest or weed control at 150 g/ha (Capsella bursa-pastoris; A 150 g a.i./ha, 20 days): 82.4% | Control effect (%) of A applied alone in corresponding dose (Malachium aquaticum; A1 7.5 g a.i./ha): 35.8% | Control effect (%) of A applied alone in corresponding dose (Malachium aquaticum; A1 15 g a.i./ha): 69.6% | Control effect (%) of A applied alone in corresponding dose (Chenopodium album; A1 7.5 g a.i./ha): 23.1% | Control effect (%) of A applied alone in corresponding dose (Chenopodium album; A1 15 g a.i./ha): 55.6% | Control effect (%) of A applied alone in corresponding dose (Chenopodium album; Table 91, 75 g a.i./ha): 23.1% | Control effect (%) of A applied alone in corresponding dose (Chenopodium album; Table 91, 150 g a.i./ha): 55.6% | Control effect (%) of A applied alone in corresponding dose (Chenopodium album; Table 92, 75 g a.i./ha): 23.1% | Control effect (%) of A applied alone in corresponding dose (Chenopodium album; Table 92, 150 g a.i./ha): 55.6% | Control effect (%) of A applied alone in corresponding dose (Chenopodium album; Table 93, 75 g a.i./ha): 23.1% | Control effect (%) of A applied alone in corresponding dose (Chenopodium album; Table 93, 150 g a.i./ha): 55.6% | Control effect (%) of A applied alone in corresponding dose (Chenopodium album; Table 94, 75 g a.i./ha): 23.1% | Control effect (%) of A applied alone in corresponding dose (Chenopodium album; Table 94, 150 g a.i./ha): 55.6% | Control effect (%) of A applied alone in corresponding dose (Chenopodium album; Table 95, 75 g a.i./ha): 23.1% | Control effect (%) of A applied alone in corresponding dose (Chenopodium album; Table 95, 150 g a.i./ha): 55.6% | Control effect (%) of A applied alone in corresponding dose (Chenopodium album; Table 96, 75 g a.i./ha): 23.1% | Control effect (%) of A applied alone in corresponding dose (Chenopodium album; Table 96, 150 g a.i./ha): 55.6% | Control effect (%) of A applied alone in corresponding dose (Echinochloa caudate; A1 75 g a.i./ha): 55.2% | Control effect (%) of A applied alone in corresponding dose (Echinochloa caudate; A1 150 g a.i./ha): 76.3% | Control effect (%) of A applied alone in corresponding dose (Echinochloa caudate; Table 80, 7.5 g a.i./ha): 55.2% | Control effect (%) of A applied alone in corresponding dose (Echinochloa caudate; Table 80, 15 g a.i./ha): 76.3% | Control effect (%) of A applied alone in corresponding dose (Echinochloa caudate; Table 81, 75 g a.i./ha): 55.2% | Control effect (%) of A applied alone in corresponding dose (Echinochloa caudate; Table 81, 150 g a.i./ha): 76.3% | Control effect (%) of A applied alone in corresponding dose (Echinochloa caudate; Table 85, 75 g a.i./ha): 55.2% | Control effect (%) of A applied alone in corresponding dose (Echinochloa caudate; Table 85, 150 g a.i./ha): 76.3% | Control effect (%) of A applied alone in corresponding dose (Echinochloa caudate; Table 86, 75 g a.i./ha): 55.2% | Control effect (%) of A applied alone in corresponding dose (Echinochloa caudate; Table 86, 150 g a.i./ha): 76.3% | Control effect (%) of A applied alone in corresponding dose (Echinochloa caudate; Table 89, 75 g a.i./ha): 55.2% | Control effect (%) of A applied alone in corresponding dose (Echinochloa caudate; Table 89, 150 g a.i./ha): 76.3% | Control effect (%) of A applied alone in corresponding dose (Echinochloa caudate; Table 97, 75 g a.i./ha): 55.2% | Control effect (%) of A applied alone in corresponding dose (Echinochloa caudate; Table 97, 150 g a.i./ha): 76.3%

C[C@@H](Oc1nc(F)c(Cl)c(N)c1Cl)C(=O)OCC1CCCO1 (stereo partly shown) [Compound A2]
Control effect (%) of A applied alone in corresponding dose (Eleusine indica; [2]): 35.7% | Control effect (%) of A applied alone in corresponding dose (Eleusine indica; [3]): 63.3% | pest or weed control at 75 g/ha (Digitaria sanguinalis; [2]): 19.4% | pest or weed control at 150 g/ha (Digitaria sanguinalis; [3]): 51.6% | Control effect (%) of A applied alone in corresponding dose (Sinapis arvensis; [2]): 37.9% | Control effect (%) of A applied alone in corresponding dose (Sinapis arvensis; [3]): 60.4% | Control effect (%) of A applied alone in corresponding dose (Alopecurus japonicus; [2]): 24.4% | Control effect (%) of A applied alone in corresponding dose (Alopecurus japonicus; [3]): 44.5% | Control effect (%) of A applied alone in corresponding dose (Amaranthus retroflexus; [2]): 25.7% | Control effect (%) of A applied alone in corresponding dose (Amaranthus retroflexus; [3]): 51.8% | pest or weed control at 75 g/ha (Capsella bursa-pastoris; [2]): 44.2% | pest or weed control at 150 g/ha (Capsella bursa-pastoris; [3]): 65% | Control effect (%) of A applied alone in corresponding dose (Galium aparine L.; A 7.5 g a.i/ha): 34.8% | Control effect (%) of A applied alone in corresponding dose (Galium aparine L.; A 15 g a.i/ha): 68.5% | Control effect (%) of A applied alone in corresponding dose (Galium aparine L.; A 150 g a.i/ha (so in the source)): 68.5% | Control effect (%) of A applied alone in corresponding dose ([1]; A2 75 g a.i./ha): 54.2% | Control effect (%) of A applied alone in corresponding dose ([1]; A2 150 g a.i./ha): 75.3% | Control effect (%) of A applied alone in corresponding dose ([1]; A 75 g a.i./ha, foliage spray, fresh weight inhibition after 24 days): 54.2% | Control effect (%) of A applied alone in corresponding dose ([1]; A 150 g a.i./ha, foliage spray, fresh weight inhibition after 24 days): 75.3%
